For one data set, the system named is HEK-293T cells. Kind of data set: Blasticidin-S survival selection of HEK-293T cells with or without bsd-intein in FOXP1 exon 18b. The class given is cell-based, human. The text has this: To knock-out MBNL1/2 (mucleblind-like protein 1/2, SEQ ID NO: 62 and SEQ ID NO: 63) in HEK293T cell cells which carries a blasticidin resistance gene flanked by inteins within the FOXP1 exon 18b, two plasmids expressing a mammalian codon-optimized Cas9 from S. pyogenes (SpCas9, SpyCas9) with a tandem C-terminal SV40 nuclear localization signal (SV40 NLS) via a CBh hybrid RNA-polymerase II promoter and human U6 driving a single-guide-RNA (sgRNA, gRNA) for SpyCas9 (SEQ ID NO: 23) with a cloned protospacer targeting MBNL1 and MBNL2 were co-transfected into the cells. 72 h later, cells were replated in a proper format and medium were supplemented with indicated blasticidin concentration. Control condition were transfected with the same conditions but the sgRNA is targeting the control locus AAVS1 (PPP1R12C) (safe-harbor locus AAVSI intronic region, SEQ ID NO. 64). Genomic DNA was isolated from blasticidin-treated surviving colonies with Wizard® Genomic DNA Purification Kit (Promega).
Next, the inventors checked whether the KO of reported suppressors of FOXP1 exon 18b by knocking out their constitutive exon of MBNL1 and MBNL2 are able to confer survival of the cells upon treatment with bs compared to a control condition where gRNA targeting the safe-harbor AAVS1 locus (PPP1R12C) was transfected instead. […]

The next data set has as its system Oaz1. Kind of data set: FACS analysis of Oaz1-EXSISERS-transfected cells treated with polyamines (ribosomal frameshift readout). In kind it is cell-based. The following applies: increasing polyamine concentrations, verified by immunoblot. An excerpt:
FIG. 7: Non-invasive protein-level quantification of co-translation regulation. […] Rising polyamine levels lead to a +1 frameshift and skipping of the in-frame stop codon leading to the full-length Oaz1 antizyme. The usage of the in-frame stop codon will otherwise lead to truncated non-functional Oaz1. Full-length Oaz1 binds and inactivates the enzyme Odc, the rate-limiting enzyme in the polyamine biosynthesis pathway, resulting in a product-mediated closed-loop homeostatic regulation of polyamine levels. […] Transfected (blue cells) cells were analyzed by counting the fraction of blue cells passing the green gate which is set to contain the 25% greenest cells in the untreated condition (0 mM).
Ribosomal frameshift-mediated regulations cannot be monitored by RT-qPCR or other RNA-based quantification methods. Exemplary, Oaz1, […] (FIG. 7a) was chosen, since it was known to be regulated by polyamine. gp41-1 split-inteins-flanked mNeonGreen and NrdJ-1-split-inteins-flanked mTagBFP2 were inserted into the full-length Oaz1 gene and transfected cells were treated with increasing polyamine concentrations to determine whether frameshift regulation could be read out via fluorescence quantification (FIG. 7b).
(In general: In flow cytometry, cells or beads pass a laser one at a time.)

As for `CN(CC[C@H](N)CC(=O)N[C@H]1C=C[C@H](n2ccc(N)nc2=O)O[C@@H]1C(=O)O)C(=N)N` [bs, blasticidin-S], the cell survival entry in the data set with HEK-293T cells (bs 5 to 12.5 μg/mL, reporter cells, control gRNA targeting AAVS1) is “no survival”; in the data set with HEK-293T cells (unmodified HEK-293T cells, targeting MBNL1 and MBNL2 or AAVS1) it was “no cells survived”. For the molecule `NCCCCNCCCN` [spermidine], the stop codon readthrough entry in the data set on Oaz1 was “stimulated”. Still for that read-out and setting: for `NCCCNCCCCNCCCN` [spermine] the value was “stimulated”.
